PubChem BioAssay AID330 (DTP/NCI, 2004)
Values joined by “and” are separate entries in the source; they are usually repeats but may differ in a detail not shown here. Equal values may be shown once. Inconclusive results and toxic doses are left out.

Tested on: P388 leukemia ip, CD2F1 mice, survival T/C
Test: NCI In Vivo Anticancer Drug Screen. Data for tumor model P388 Leukemia (intraperitoneal) in CD2F1 (CDF1) mice
Settings: endpoint: median survival time, higher = longer survival
Summary of the method: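 Mice carrying the transplanted tumor received test compound or vehicle. Survival was recorded in each group, and the value is the treated-group measurement divided by that of the vehicle-treated control group.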

[1] = dose: 6.25 mg/kg/injection, schedule: Q04DX003 (ip), vehicle: saline
[2] = dose: 50.0 mg/kg/injection, schedule: Q01DX005 (ip), vehicle: saline with Tween-80
[3] = dose: 100.0 mg/kg/injection, schedule: Q01DX005 (ip), vehicle: saline with Tween-80
[4] = dose: 200.0 mg/kg/injection, schedule: Q01DX005 (ip), vehicle: saline with Tween-80
[5] = dose: 100.0 mg/kg/injection, schedule: Q01DX001 (ip), vehicle: saline
[6] = dose: 200.0 mg/kg/injection, schedule: Q01DX001 (ip), vehicle: saline
[7] = dose: 400.0 mg/kg/injection, schedule: Q01DX001 (ip), vehicle: saline
[8] = dose: 50.0 mg/kg/injection, schedule: Q01DX005 (ip), vehicle: Klucel (hydroxypropylcellulose) (HPC)
[9] = dose: 100.0 mg/kg/injection, schedule: Q01DX005 (ip), vehicle: Klucel (hydroxypropylcellulose) (HPC)
[10] = dose: 200.0 mg/kg/injection, schedule: Q01DX005 (ip), vehicle: Klucel (hydroxypropylcellulose) (HPC)

In the case of O=[N+]([O-])C(CO)(CO)CC(F)(F)F, the T/C [1] is reported as 100 % of control.
For Nc1cc2nc3ccccc3nc2cc1O, the T/C [2] was 90 % of control, the T/C [3] was 90 % of control and the T/C [4] was 90 % of control.
C=C1CC2(CC(C)CCC2C(=C)C)OC1=O (configuration not stated) was tested, and the T/C [5] was 101 % of control, the T/C [6] was 102 % of control and the T/C [7] was 99 % of control.
Cc1oc2c(C)c3oc(=O)cc(C)c3cc2c1CCl was tested, and the T/C (dose: 12.5 mg/kg/injection, schedule: Q04DX002 (ip), vehicle: saline with Tween-80) was 114 % of control, the T/C (dose: 25.0 mg/kg/injection, schedule: Q04DX002 (ip), vehicle: saline with Tween-80) was 123 % of control and the T/C (dose: 400.0 mg/kg/injection, schedule: Q05DX002 (ip), vehicle: saline with Tween-80) was 98 % of control.
With Cc1ccc2cccnc2c1NCCCCCNC(C)C the T/C (dose: 12.5 mg/kg/injection, schedule: Q01DX005 (ip), vehicle: saline with Tween-80) was 97 % of control, the T/C (dose: 25.0 mg/kg/injection, schedule: Q01DX005 (ip), vehicle: saline with Tween-80) was 100 % of control and the T/C [2] was 100 % of control and 97 % of control.
With COc1ccc(S(=O)(=O)N/N=C\c2cc([N+](=O)[O-])ccc2O)cc1OC the T/C [2] was 109 % of control, the T/C [3] was 109 % of control and the T/C [4] was 100 % of control.
For CCOP(=O)(Nc1ccc(C)cc1C)OCC, the T/C (dose: 50.0 mg/kg/injection, schedule: Q01DX009 (ip), vehicle: saline) was 100 % of control, the T/C [5] was 103 % of control and the T/C (dose: 100.0 mg/kg/injection, schedule: Q01DX009 (ip), vehicle: saline) was 104 % of control. For the same molecule, the T/C [6] was 107 % of control, the T/C (dose: 200.0 mg/kg/injection, schedule: Q01DX009 (ip), vehicle: saline) was 99 % of control and the T/C [7] was 100 % of control.
C=CCOc1ccccc1C(=O)NC(O)(C(F)(F)F)C(F)(F)F was tested, and the T/C (dose: 50.0 mg/kg/injection, schedule: Q04DX002 (ip), vehicle: suspension in saline) was 100 % of control, the T/C (dose: 100.0 mg/kg/injection, schedule: Q04DX002 (ip), vehicle: suspension in saline) was 104 % of control and the T/C (dose: 200.0 mg/kg/injection, schedule: Q04DX002 (ip), vehicle: suspension in saline) was 98 % of control.
For CC(/C=C/c1ccccc1)=N\O, the T/C [8] was 97 % of control, the T/C [9] was 99 % of control and the T/C [10] was 97 % of control.
In the case of CC(=O)C1CC[C@@]2(C)C(CC[C@H]3[C@@H]4CCC[C@H]([C@H](C)O)[C@@]4(C)CC[C@@H]32)C1 (some centres not stated), the T/C (dose: 12.5 mg/kg/injection, schedule: Q01DX009 (ip), vehicle: Klucel (hydroxypropylcellulose) (HPC)) is reported as 91 % of control, the T/C (dose: 25.0 mg/kg/injection, schedule: Q01DX009 (ip), vehicle: Klucel (hydroxypropylcellulose) (HPC)) is reported as 91 % of control and the T/C (dose: 50.0 mg/kg/injection, schedule: Q01DX009 (ip), vehicle: Klucel (hydroxypropylcellulose) (HPC)) is reported as 88 % of control.
N=C(N)c1ccc(-c2[nH]c3cc(C(=N)N)ccc3c2N)cc1 was tested, and the T/C [1] was 86 % of control, the T/C (dose: 12.5 mg/kg/injection, schedule: Q04DX003 (ip), vehicle: saline) was 88 % of control and the T/C (dose: 25.0 mg/kg/injection, schedule: Q04DX003 (ip), vehicle: saline) was 92 % of control.
For CC(C)=Cn1ccccc1=O, the T/C (dose: 25.0 mg/kg/injection, schedule: Q01DX001 (ip), vehicle: saline) was 104 % of control and 108 % of control, the T/C (dose: 50.0 mg/kg/injection, schedule: Q01DX001 (ip), vehicle: saline) was 99 % of control and 98 % of control and the T/C [5] was 120 % of control and 95 % of control and 98 % of control. The T/C [6] was 94 % of control and the T/C [7] was 108 % of control.
With COc1cccc2c1C(=O)c1c(O)c3c(c(O)c1C2=O)C[C@@](O)(/C(C)=N\NC(=O)CCC(N)C(=O)O)C[C@@H]3OC1CC(N)C(O)C(C)O1 (some centres not stated) (tested in a mixture with another compound) the T/C (dose: 18.75 mg/kg/injection, schedule: Q04DX003 (ip), vehicle: water) was 121 % of control, the T/C (dose: 75.0 mg/kg/injection, schedule: Q04DX003 (ip), vehicle: water) was 121 % of control and the T/C (dose: 300.0 mg/kg/injection, schedule: Q04DX003 (ip), vehicle: water) was 163 % of control.
CCOC(=O)c1c(-c2ccc3c(c2)OCO3)[nH][nH]c1=O was tested, and the T/C (dose: 100.0 mg/kg/injection, schedule: Q04DX002 (ip), vehicle: saline) was 101 % of control and the T/C (dose: 200.0 mg/kg/injection, schedule: Q04DX002 (ip), vehicle: saline) was 99 % of control.
NC(CCCCNC(=S)S)C(=O)O.[Zn+2] (configuration not stated) was tested, and the T/C [8] was 107 % of control, the T/C [9] was 107 % of control and the T/C [10] was 107 % of control.
